# Reference: ChEMBL document CHEMBL4270672, “Synthesis and Biological Evaluation of Fused Tricyclic Heterocycle Piperazine (Piperidine) Derivatives As Potential Multireceptor Atypical Antipsychotics” (J Med Chem, 2018)
# Active and inactive are the calls of the source. No cut-off for these calls is given here.
# What was measured:
# Rattus norvegicus [1] = assay: Cognitive enhancing effect in Sprague-Dawley rat assessed as effect on total exploration time for familiar objects in acquisition trial at 0.03 to 0.3 mg/kg, po administered 1 hr measured for 3 mins by novel object recognition test; format: functional, organism-based
# [2] = target: 5-hydroxytryptamine receptor 2A (Rattus norvegicus, UniProt P14842); assay: Displacement of [3H]-ketanserine from serotonin 5-HT2A receptor in rat brain cortex homogenates incubated for 30 mins by liquid scintillation counting
# [3] = Acute toxicity in po dosed Kunming mouse assessed as mortality measured after 24 hrs post dose; format: organism-based; conditions: in vivo
# [4] = target: 5-hydroxytryptamine receptor 1A (Homo sapiens) (UniProt P08908); assay: Agonist activity at serotonin 5-HT1A receptor (unknown origin) expressed in HEK293 cells assessed as induction of calcium flux at 10 uM after 60 mins by calcium 4-dye based FLIPR assay relative to control; format: functional, cell-based
# Chain of 5-hydroxytryptamine receptor 1A (Homo sapiens) (P08908 whole entry): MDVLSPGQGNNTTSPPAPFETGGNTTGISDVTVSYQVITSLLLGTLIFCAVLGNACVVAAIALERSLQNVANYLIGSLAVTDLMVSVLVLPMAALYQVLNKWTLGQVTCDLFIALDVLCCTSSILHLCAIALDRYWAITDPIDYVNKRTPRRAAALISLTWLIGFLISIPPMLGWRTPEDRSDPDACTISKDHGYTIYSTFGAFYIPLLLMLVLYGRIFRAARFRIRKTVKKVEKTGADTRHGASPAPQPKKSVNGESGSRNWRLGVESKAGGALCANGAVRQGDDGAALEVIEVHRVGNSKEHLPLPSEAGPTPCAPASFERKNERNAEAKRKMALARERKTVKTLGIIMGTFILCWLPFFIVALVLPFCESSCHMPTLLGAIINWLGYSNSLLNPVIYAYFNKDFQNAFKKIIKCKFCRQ
# [5] = target: T1, 5-hydroxytryptamine receptor 2A (Homo sapiens, UniProt P28223); assay: Agonist activity at serotonin 5-HT2A receptor (unknown origin) expressed in HEK293 cells assessed as induction of calcium flux at 10 uM after 60 mins by calcium 4-dye based FLIPR assay relative to control; format: functional, cell-based
# T1 sequence (P28223 whole entry): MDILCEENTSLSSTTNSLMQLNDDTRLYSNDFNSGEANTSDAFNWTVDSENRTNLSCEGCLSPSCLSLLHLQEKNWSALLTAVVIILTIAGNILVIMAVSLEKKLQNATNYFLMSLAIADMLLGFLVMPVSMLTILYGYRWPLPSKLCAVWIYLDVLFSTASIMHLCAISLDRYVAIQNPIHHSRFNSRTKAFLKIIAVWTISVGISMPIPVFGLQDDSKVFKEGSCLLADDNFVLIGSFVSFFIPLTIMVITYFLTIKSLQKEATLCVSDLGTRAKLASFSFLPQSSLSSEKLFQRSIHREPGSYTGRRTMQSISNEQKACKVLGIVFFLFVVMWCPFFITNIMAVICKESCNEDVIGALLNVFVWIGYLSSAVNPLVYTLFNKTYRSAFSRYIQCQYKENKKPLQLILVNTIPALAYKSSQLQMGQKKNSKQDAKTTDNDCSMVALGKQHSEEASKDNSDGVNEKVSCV
# [6] = target: 5-hydroxytryptamine receptor 6 (Homo sapiens, UniProt P50406); assay: Agonist activity at serotonin 5-HT6 receptor (unknown origin) expressed in HEK293 cells assessed as induction of calcium flux at 10 uM after 60 mins by calcium 4-dye based FLIPR assay relative to control; format: functional, cell-based
# Chain of 5-hydroxytryptamine receptor 6 (P50406 whole entry): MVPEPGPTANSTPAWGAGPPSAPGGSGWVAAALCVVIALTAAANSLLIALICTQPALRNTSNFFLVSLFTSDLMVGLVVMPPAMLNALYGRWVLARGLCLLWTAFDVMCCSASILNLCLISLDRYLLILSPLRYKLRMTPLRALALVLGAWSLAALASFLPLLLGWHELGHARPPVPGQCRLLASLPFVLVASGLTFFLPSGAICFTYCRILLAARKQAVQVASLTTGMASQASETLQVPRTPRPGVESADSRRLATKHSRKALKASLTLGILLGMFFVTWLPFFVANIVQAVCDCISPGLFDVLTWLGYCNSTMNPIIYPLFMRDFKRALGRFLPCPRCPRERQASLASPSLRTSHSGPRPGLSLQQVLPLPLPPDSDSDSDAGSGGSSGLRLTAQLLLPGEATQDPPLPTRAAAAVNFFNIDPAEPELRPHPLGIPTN
# Mus musculus [7] = assay: Induction of catalepsy in po dosed Kunming mouse measured after 60 secs; format: organism-based; conditions: in vivo, 1 min
# [8] = Therapeutic index, ratio of ED50 for catalepsy in Kunming mouse to ED50 for apomorphine-induced climbing in Kunming mouse; format: toxicity, organism-based; conditions: in vivo, read-out: Ratio ED50
# [9] = Half life in Sprague-Dawley rat at 1 mg/kg, iv by LC-MS/MS analysis; format: ADME, organism-based; conditions: in vivo
# [10] = Tmax in Sprague-Dawley rat at 10 mg/kg, po by LC-MS/MS analysis; format: ADME, organism-based; conditions: in vivo
# [11] = AUC (0 to t) in Sprague-Dawley rat at 1 mg/kg, iv by LC-MS/MS analysis; format: ADME, organism-based; conditions: in vivo
# [12] = AUC (0 to infinity) in Sprague-Dawley rat at 10 mg/kg, po by LC-MS/MS analysis; format: ADME, organism-based; set-up: dose 10 mg/kg, route oral, time infinity; conditions: in vivo
# Rattus norvegicus [13] = assay: Cognitive enhancing effect in Sprague-Dawley rat assessed as increase in total exploration time for novel objects in retention trial at 0.03 mg/kg, po administered 1 hr prior to acquisition trial measured 24 hrs post acquisition trial for 5 mins by novel object recognition test; format: functional, organism-based
# Rattus norvegicus [14] = assay: Cognitive enhancing effect in Sprague-Dawley rat assessed as increase in novelty discrimination index in retention trial at 0.3 mg/kg, po administered 1 hr prior to acquisition trial measured 24 hrs post acquisition trial for 5 mins by novel object recognition test; format: functional, organism-based
# [15] = target: 5-hydroxytryptamine receptor 7 (Rattus norvegicus, UniProt P32305); assay: Displacement of [3H]-5-CT from 5-HT7 receptor in rat cerebral cortex homogenates after 30 mins by liquid scintillation counting
# Chain of 5-hydroxytryptamine receptor 7 (P32305 whole entry): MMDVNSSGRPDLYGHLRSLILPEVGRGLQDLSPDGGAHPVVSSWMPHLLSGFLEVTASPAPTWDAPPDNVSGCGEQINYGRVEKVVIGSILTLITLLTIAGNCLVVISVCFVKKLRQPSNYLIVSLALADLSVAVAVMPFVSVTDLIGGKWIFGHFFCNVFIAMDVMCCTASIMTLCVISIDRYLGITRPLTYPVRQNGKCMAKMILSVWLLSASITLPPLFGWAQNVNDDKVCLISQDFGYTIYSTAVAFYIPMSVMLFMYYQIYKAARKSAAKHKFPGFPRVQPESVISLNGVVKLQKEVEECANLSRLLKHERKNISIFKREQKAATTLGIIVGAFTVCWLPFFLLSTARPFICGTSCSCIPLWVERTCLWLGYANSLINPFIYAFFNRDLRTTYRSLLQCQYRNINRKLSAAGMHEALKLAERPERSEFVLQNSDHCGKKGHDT
# D(1A) dopamine receptor = D(1A) dopamine receptor (Homo sapiens, UniProt P21728); assay: Antagonist activity at human dopamine D1 receptor expressed in HEK293T cells assessed as inhibition of dopamine-induced cAMP accumulation at 10 uM preincubated for 15 mins followed by dopamine induction and measured after 30 mins by HTRF assay; format: functional, cell-based
# Chain of D(1A) dopamine receptor (P21728 whole entry): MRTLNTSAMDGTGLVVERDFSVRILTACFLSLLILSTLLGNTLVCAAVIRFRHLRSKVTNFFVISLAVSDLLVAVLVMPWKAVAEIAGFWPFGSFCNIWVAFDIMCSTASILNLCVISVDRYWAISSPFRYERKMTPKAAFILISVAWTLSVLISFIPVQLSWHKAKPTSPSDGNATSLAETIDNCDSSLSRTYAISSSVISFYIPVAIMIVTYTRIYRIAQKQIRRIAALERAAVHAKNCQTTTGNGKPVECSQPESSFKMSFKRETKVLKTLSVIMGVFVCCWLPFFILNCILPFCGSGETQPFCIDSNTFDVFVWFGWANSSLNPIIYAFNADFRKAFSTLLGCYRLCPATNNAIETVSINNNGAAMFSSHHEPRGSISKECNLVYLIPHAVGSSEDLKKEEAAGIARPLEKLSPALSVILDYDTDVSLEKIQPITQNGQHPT
# [16] = target: Sodium-dependent serotonin transporter (Rattus norvegicus, UniProt P31652); assay: Displacement of [3H]-paroxetine from SERT in rat cerebral cotex homogenates after 10 mins by liquid scintillation counting
# Chain of Sodium-dependent serotonin transporter (P31652 whole entry): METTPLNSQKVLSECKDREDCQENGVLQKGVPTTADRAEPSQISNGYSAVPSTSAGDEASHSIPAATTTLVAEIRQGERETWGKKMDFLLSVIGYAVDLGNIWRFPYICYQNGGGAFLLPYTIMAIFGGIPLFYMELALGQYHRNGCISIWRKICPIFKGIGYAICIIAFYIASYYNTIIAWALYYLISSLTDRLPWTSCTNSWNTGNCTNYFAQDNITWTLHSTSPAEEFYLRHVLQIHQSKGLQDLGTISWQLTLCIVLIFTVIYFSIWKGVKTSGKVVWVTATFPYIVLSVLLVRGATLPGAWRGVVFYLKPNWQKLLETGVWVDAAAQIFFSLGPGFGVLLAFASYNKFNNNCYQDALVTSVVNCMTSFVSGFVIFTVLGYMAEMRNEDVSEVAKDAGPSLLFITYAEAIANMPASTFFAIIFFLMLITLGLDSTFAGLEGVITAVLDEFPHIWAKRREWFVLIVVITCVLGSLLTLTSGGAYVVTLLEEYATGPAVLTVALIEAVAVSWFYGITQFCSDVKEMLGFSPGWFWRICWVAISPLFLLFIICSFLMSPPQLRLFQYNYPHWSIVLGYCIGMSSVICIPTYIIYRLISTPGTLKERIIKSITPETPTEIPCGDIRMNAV
# [17] = target: Sigma non-opioid intracellular receptor 1 (Cavia porcellus, UniProt Q60492); assay: Displacement of [3H]-(+)-pentazocine from sigma1 receptor in guinea pig brain membranes after 180 mins by liquid scintillation counting; format: cell membranes, Membrane
# [18] = target: Sodium-dependent dopamine transporter (Rattus norvegicus, UniProt P23977); assay: Displacement of [3H] WIN35,428 from rat striatum homogenate DAT after 8 hrs mins by liquid scintillation counting
# Chain of Sodium-dependent dopamine transporter (P23977 whole entry): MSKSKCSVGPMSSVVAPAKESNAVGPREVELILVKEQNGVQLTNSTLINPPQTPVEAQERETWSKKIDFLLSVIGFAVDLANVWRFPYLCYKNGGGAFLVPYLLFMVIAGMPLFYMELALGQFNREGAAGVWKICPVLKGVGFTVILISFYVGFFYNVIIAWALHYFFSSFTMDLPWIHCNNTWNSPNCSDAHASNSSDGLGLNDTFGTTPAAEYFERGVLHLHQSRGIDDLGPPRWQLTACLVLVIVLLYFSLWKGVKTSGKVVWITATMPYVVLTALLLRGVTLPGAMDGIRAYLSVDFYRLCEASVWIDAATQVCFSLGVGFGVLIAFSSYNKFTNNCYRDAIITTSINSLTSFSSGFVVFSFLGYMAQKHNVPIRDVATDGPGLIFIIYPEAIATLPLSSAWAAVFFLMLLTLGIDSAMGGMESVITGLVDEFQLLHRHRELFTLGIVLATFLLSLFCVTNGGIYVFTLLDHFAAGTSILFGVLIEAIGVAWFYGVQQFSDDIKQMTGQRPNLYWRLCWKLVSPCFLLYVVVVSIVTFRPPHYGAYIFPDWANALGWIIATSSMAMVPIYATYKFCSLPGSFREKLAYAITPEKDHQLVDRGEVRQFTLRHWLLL
# D(2) dopamine receptor [19] = target: D(2) dopamine receptor (Rattus norvegicus, UniProt P61169)
# Chain of D(2) dopamine receptor (Rattus norvegicus, UniProt P61169) (P61169 whole entry): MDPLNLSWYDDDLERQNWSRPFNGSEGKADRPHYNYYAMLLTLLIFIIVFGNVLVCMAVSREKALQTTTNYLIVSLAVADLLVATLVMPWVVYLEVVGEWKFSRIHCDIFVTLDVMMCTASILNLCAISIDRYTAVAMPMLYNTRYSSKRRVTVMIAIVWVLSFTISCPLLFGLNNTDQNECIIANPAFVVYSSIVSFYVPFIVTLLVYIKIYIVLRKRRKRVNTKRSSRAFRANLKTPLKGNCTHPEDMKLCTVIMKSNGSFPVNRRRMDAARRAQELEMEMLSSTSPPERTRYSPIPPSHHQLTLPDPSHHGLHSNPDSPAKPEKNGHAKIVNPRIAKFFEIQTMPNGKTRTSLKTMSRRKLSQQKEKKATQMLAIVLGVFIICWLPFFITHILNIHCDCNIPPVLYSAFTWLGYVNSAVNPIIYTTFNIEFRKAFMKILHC
# [20] = target: T2, 5-hydroxytryptamine receptor 1A (Rattus norvegicus, UniProt P19327)
# T2 sequence (P19327 whole entry): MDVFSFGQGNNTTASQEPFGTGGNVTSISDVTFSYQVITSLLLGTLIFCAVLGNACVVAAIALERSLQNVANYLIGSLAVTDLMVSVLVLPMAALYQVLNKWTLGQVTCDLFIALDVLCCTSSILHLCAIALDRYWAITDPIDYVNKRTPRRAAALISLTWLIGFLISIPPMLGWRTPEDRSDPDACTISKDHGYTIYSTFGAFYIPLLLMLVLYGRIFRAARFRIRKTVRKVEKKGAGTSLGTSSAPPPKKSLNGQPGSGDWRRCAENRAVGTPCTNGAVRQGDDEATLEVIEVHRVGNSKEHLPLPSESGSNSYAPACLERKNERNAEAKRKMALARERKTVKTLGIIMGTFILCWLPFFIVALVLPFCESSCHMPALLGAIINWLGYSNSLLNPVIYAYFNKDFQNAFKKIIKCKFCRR
# Histamine H1 receptor = Histamine H1 receptor (Cavia porcellus, UniProt P31389)
# Chain of Histamine H1 receptor (P31389 whole entry): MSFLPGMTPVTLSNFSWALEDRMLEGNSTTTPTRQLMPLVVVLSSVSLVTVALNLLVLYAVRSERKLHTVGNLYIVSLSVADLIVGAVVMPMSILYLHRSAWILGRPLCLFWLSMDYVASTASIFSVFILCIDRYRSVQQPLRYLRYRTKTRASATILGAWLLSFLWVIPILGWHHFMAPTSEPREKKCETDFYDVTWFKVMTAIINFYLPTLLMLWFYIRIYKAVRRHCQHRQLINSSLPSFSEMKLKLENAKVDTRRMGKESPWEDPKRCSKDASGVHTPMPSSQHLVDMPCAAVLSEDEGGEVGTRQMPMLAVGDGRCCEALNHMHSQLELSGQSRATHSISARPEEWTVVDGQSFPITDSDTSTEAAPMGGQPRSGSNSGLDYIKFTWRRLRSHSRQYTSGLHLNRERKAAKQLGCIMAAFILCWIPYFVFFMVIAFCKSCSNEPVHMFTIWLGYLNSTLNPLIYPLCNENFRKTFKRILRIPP
# Description: Displacement of [3H]-mepyramine from histamine H1 receptor in guinea pig cerebellum homogenates incubated for 60 mins by liquid scintillation counting
# [21] = target: T3, 5-hydroxytryptamine receptor 2C (Rattus norvegicus, UniProt P08909)
# T3 sequence (P08909 whole entry): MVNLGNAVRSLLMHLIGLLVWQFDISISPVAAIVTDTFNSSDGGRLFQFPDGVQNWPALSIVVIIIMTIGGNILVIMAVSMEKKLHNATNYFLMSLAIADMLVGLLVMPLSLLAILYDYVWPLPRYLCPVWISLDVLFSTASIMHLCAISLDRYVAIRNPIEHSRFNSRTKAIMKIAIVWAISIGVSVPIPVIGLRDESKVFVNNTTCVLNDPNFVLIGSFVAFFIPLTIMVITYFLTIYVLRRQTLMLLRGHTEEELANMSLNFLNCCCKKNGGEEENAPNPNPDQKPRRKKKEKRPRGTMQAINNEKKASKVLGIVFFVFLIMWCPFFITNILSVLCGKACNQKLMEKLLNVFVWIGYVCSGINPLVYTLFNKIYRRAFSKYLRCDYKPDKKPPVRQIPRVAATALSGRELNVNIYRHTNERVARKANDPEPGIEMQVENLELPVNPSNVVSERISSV
# D(2) dopamine receptor [22] = target: D(2) dopamine receptor (Homo sapiens, UniProt P14416)
# Chain of D(2) dopamine receptor (Homo sapiens, UniProt P14416) (P14416 whole entry): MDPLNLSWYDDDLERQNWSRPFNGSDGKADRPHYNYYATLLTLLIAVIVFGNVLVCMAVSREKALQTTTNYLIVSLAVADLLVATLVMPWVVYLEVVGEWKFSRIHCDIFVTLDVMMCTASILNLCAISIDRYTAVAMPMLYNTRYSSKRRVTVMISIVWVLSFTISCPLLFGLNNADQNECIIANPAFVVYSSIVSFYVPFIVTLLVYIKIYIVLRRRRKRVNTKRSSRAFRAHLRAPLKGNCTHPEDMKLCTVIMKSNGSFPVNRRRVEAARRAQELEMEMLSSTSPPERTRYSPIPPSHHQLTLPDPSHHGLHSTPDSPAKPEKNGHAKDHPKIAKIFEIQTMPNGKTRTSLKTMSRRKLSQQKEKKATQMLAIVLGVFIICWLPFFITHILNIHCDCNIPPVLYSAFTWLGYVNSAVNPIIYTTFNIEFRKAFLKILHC
# [23] = target: 5-hydroxytryptamine receptor 1A (Homo sapiens, UniProt P08908)
# Chain of 5-hydroxytryptamine receptor 1A (Homo sapiens, UniProt P08908) (P08908 whole entry): as the sequence (P08908 whole entry) above
# [24] = target: T1, 5-hydroxytryptamine receptor 2A
# Mus musculus [25] = conditions: Kunming
# Description: Antipsychotic activity in po dosed Kunming mouse assessed as reduction in MK-801-induced hyperactivity pretreated for 60 mins followed by MK-801 challenge measured for 90 mins
smiles,measurement,setting,value
O=C(CCCCN1CCC(c2noc3cc(F)ccc23)CC1)c1cc2c3c(c1)CCN3C(=O)CC2,Activity,Rattus norvegicus [1],inactive
same,Ki,[2],0.00072 µM
same,LD50 at 24 h,[3],> 2000 mg/kg
same,Activity,[4],8.6%
same,Activity,[5],0.6%
same,Activity,[6],6%
same,ED50,Mus musculus [7],78.62 mg/kg
same,selectivity ratio,[8],129
same,half-life,[9],2.15 h
same,Tmax,[10],1 h
same,AUC(0-t),[11],3140 ng·h/mL
same,AUC(0-inf),[12],18500 ng·h/mL
same,Activity,Rattus norvegicus [13],inactive
same,Activity,Rattus norvegicus [14],Active
same,Ki,[15],0.226 µM
same,inhibition,D(1A) dopamine receptor,> 90%
same,Ki,[16],> 1 µM
same,Ki,[17],> 1 µM
same,Ki,[18],> 1 µM
same,Ki,D(2) dopamine receptor [19],0.0029 µM
same,Ki,[20],0.0086 µM
same,Ki,Histamine H1 receptor,0.63 µM
same,Ki,[21],0.616 µM
same,IC50,D(2) dopamine receptor [22],0.00902 µM
same,IC50,[23],0.588 µM
same,IC50,[24],0.257 µM
same,Activity,Mus musculus [25],Dose-dependent effect
